Measurements: ChEMBL document CHEMBL1201862, “PubChem BioAssay data set” (2004)
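Interpolation was linear, between the two tested concentrations surrounding the appropriate level; five concentrations were tested over 48 hours in 96-well plates. At the GI50, growth is halved.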 Calls of active or inactive are those of the source. Cut-off read from the data, not from the text of the source: active = GI50 up to about 1.1 µM and inactive = higher.

What was measured:
Test in all cases: NCI anticancer screen, dose series, 48 h
UACC-62 = test system: UACC-62
A498 = test system: A498
SK-OV-3 = test system: SK-OV-3
NCI-H23 = test system: NCI-H23
T47D = test system: T47D
NCI-H460 = test system: NCI-H460
EKVX = test system: EKVX
CCRF-CEM = test system: CCRF-CEM
SR = test system: SR
M14 = test system: M14
IGROV-1 = test system: IGROV-1
SW-620 = test system: SW-620
NCI-H226 = test system: NCI-H226
SK-MEL-5 = test system: SK-MEL-5
OVCAR-5 = test system: OVCAR-5
Malme-3M = test system: Malme-3M
ACHN = test system: ACHN
786-0 = test system: 786-0
SN12C = test system: SN12C
HOP-92 = test system: HOP-92

| Structure (SMILES) | GI50 (UACC-62) | GI50 (A498) | GI50 (SK-OV-3) | GI50 (NCI-H23) | GI50 (T47D) | GI50 (NCI-H460) | GI50 (EKVX) | GI50 (CCRF-CEM) | GI50 (SR) | GI50 (M14) | GI50 (IGROV-1) | GI50 (SW-620) | GI50 (NCI-H226) | GI50 (SK-MEL-5) | GI50 (OVCAR-5) | GI50 (Malme-3M) | GI50 (ACHN) | GI50 (786-0) | GI50 (SN12C) | GI50 (HOP-92) |
| --- | --- | --- | --- | --- | --- | --- | --- | --- | --- | --- | --- | --- | --- | --- | --- | --- | --- | --- | --- | --- |
| Cc1ncc([N+](=O)[O-])n1CCN(C)C(=O)CCCn1ccnc1[N+](=O)[O-] | > 100 µM (inactive) | > 100 µM (inactive) | > 100 µM (inactive) | > 100 µM (inactive) | > 100 µM (inactive) | > 100 µM (inactive) | > 100 µM (inactive) | > 100 µM (inactive) | > 100 µM (inactive) | > 100 µM (inactive) | > 100 µM (inactive) | > 100 µM (inactive) | > 100 µM (inactive) | > 100 µM (inactive) | > 100 µM (inactive) | > 100 µM (inactive) | > 100 µM (inactive) | > 100 µM (inactive) | > 100 µM (inactive) | – |
| CCOC(=O)c1[nH]cc(C)c1-c1ccc2c(-c3ccccc3)nc3ccccc3n12 | 2.73 µM (inactive) | 2.84 µM (inactive) | 4.4 µM (inactive) | 5.05 µM (inactive) | 4.43 µM (inactive) | 2.92 µM (inactive) | 3.82 µM (inactive) | 2.68 µM (inactive) | 1.62 µM (inactive) | 5.55 µM (inactive) | 3.66 µM (inactive) | 3.13 µM (inactive) | 5.22 µM (inactive) | 2.37 µM (inactive) | 15.8 µM (inactive) | – | 4.01 µM (inactive) | 3.56 µM (inactive) | 3.37 µM (inactive) | 3.52 µM (inactive) |
| C=CCN1CCC2(CC1)NC(=O)c1ccccc1O2 | > 100 µM (inactive) | – | > 100 µM (inactive) | > 100 µM (inactive) | > 100 µM (inactive) | > 100 µM (inactive) | > 100 µM (inactive) | > 100 µM (inactive) | > 100 µM (inactive) | > 100 µM (inactive) | > 100 µM (inactive) | > 100 µM (inactive) | > 100 µM (inactive) | > 100 µM (inactive) | > 100 µM (inactive) | > 100 µM (inactive) | > 100 µM (inactive) | > 100 µM (inactive) | > 100 µM (inactive) | > 100 µM (inactive) |
| CN(C)c1ccc(C2CC(C)(O)Oc3cc4c(cc32)OCO4)cc1 (stereo not drawn) | 21.6 µM (inactive) | – | 48.8 µM (inactive) | 71.8 µM (inactive) | 48.6 µM (inactive) | 40.9 µM (inactive) | 48.9 µM (inactive) | 33.6 µM (inactive) | 9.33 µM (inactive) | 39.1 µM (inactive) | 1.73 µM (inactive) | 35.3 µM (inactive) | 3.86 µM (inactive) | 30.6 µM (inactive) | 75.9 µM (inactive) | 67 µM (inactive) | 70.6 µM (inactive) | 43.7 µM (inactive) | 25.4 µM (inactive) | 25.9 µM (inactive) |
| CCOC(=O)c1ccc(C(=O)/C(C#N)=C2\CCCN2)n1C | > 100 µM (inactive) | > 100 µM (inactive) | > 100 µM (inactive) | 97.5 µM (inactive) | 28.2 µM (inactive) | > 100 µM (inactive) | > 100 µM (inactive) | > 100 µM (inactive) | 31 µM (inactive) | > 100 µM (inactive) | > 100 µM (inactive) | > 100 µM (inactive) | 79.1 µM (inactive) | 33.6 µM (inactive) | > 100 µM (inactive) | > 100 µM (inactive) | > 100 µM (inactive) | > 100 µM (inactive) | > 100 µM (inactive) | – |
| O=C(CCc1cc(O)cc(O)c1)NCCc1cc(O)cc(OCc2ccccc2)c1 | 32.1 µM (inactive) | > 100 µM (inactive) | 59.4 µM (inactive) | 23.4 µM (inactive) | 34 µM (inactive) | 20.4 µM (inactive) | 57.3 µM (inactive) | > 10 µM (inactive) | 30.5 µM (inactive) | 35.8 µM (inactive) | 59.3 µM (inactive) | 72.1 µM (inactive) | 62.7 µM (inactive) | 19.1 µM (inactive) | 63 µM (inactive) | – | 24.7 µM (inactive) | 64.9 µM (inactive) | 39.3 µM (inactive) | 53.1 µM (inactive) |
| CCOC(=O)CCC(NC(=O)c1ccc(Nc2cnc3cc(C(F)(F)F)ccc3n2)cc1)C(=O)OCC (stereo not drawn) | > 10 µM (inactive) | – | – | 27.7 µM (inactive) | > 100 µM (inactive) | 12.6 µM (inactive) | > 84.7 µM (inactive) | > 100 µM (inactive) | > 100 µM (inactive) | 35.9 µM (inactive) | 42 µM (inactive) | > 100 µM (inactive) | > 79.6 µM (inactive) | > 100 µM (inactive) | > 100 µM (inactive) | > 57 µM (inactive) | 63.2 µM (inactive) | 9.75 µM (inactive) | > 100 µM (inactive) | 23.9 µM (inactive) |
| C/C(=N\NC(=O)/C(C#N)=C\c1ccc(N(CCC#N)CCC#N)cc1)c1ccccc1 | > 10 µM (inactive) | – | > 10 µM (inactive) | > 10 µM (inactive) | > 10 µM (inactive) | > 10 µM (inactive) | > 10 µM (inactive) | – | > 10 µM (inactive) | > 10 µM (inactive) | > 10 µM (inactive) | > 10 µM (inactive) | > 10 µM (inactive) | > 10 µM (inactive) | – | > 10 µM (inactive) | > 10 µM (inactive) | > 10 µM (inactive) | > 10 µM (inactive) | > 10 µM (inactive) |
| CC1=NN(c2cccc(Cl)c2)C2(SCC(=O)N2c2nc3ccccc3s2)/C1=C\c1ccccc1O (stereo not drawn) | – | 11 µM (inactive) | 18.4 µM (inactive) | 16 µM (inactive) | 3.99 µM (inactive) | 31.8 µM (inactive) | 30.5 µM (inactive) | 15.1 µM (inactive) | 13.7 µM (inactive) | 21.7 µM (inactive) | 17.4 µM (inactive) | 16.7 µM (inactive) | 34.3 µM (inactive) | 13.4 µM (inactive) | 25.4 µM (inactive) | – | 15.5 µM (inactive) | 16.3 µM (inactive) | – | 10.1 µM (inactive) |
| CC(C)c1cc(=O)[nH]c2cc(N)ccc12 | 93.8 µM (inactive) | > 100 µM (inactive) | – | > 100 µM (inactive) | > 100 µM (inactive) | > 100 µM (inactive) | > 100 µM (inactive) | > 100 µM (inactive) | > 100 µM (inactive) | > 100 µM (inactive) | > 100 µM (inactive) | > 100 µM (inactive) | > 100 µM (inactive) | > 100 µM (inactive) | > 100 µM (inactive) | – | > 100 µM (inactive) | > 100 µM (inactive) | > 100 µM (inactive) | > 100 µM (inactive) |
| COc1cc2c(c3oc4c(O)cccc4c(=O)c13)CC(C(C)(O)CO)O2 (stereo not drawn) | 27.1 µM (inactive) | – | – | 95.7 µM (inactive) | 75.7 µM (inactive) | 96.8 µM (inactive) | > 100 µM (inactive) | 21.3 µM (inactive) | 34.1 µM (inactive) | > 100 µM (inactive) | 41.7 µM (inactive) | 47.6 µM (inactive) | > 100 µM (inactive) | 53 µM (inactive) | > 100 µM (inactive) | 47.5 µM (inactive) | 59.6 µM (inactive) | 65.6 µM (inactive) | 60.1 µM (inactive) | 37.2 µM (inactive) |
| CCOC(=O)c1ccc2nc3n(c2c1)C(c1c(F)cccc1F)SC3 (stereo not drawn) | > 100 µM (inactive) | > 100 µM (inactive) | > 100 µM (inactive) | 78.9 µM (inactive) | > 100 µM (inactive) | > 100 µM (inactive) | 29.9 µM (inactive) | > 100 µM (inactive) | 49.3 µM (inactive) | > 100 µM (inactive) | 86.7 µM (inactive) | > 100 µM (inactive) | 15.1 µM (inactive) | > 100 µM (inactive) | > 100 µM (inactive) | – | 84.1 µM (inactive) | 55.7 µM (inactive) | > 100 µM (inactive) | > 100 µM (inactive) |
| CCCCCCOC(=O)C(N)Cc1ccc(OC)cc1 (stereo not drawn) | > 100 µM (inactive) | – | > 100 µM (inactive) | > 100 µM (inactive) | > 100 µM (inactive) | > 100 µM (inactive) | > 100 µM (inactive) | 26.6 µM (inactive) | > 100 µM (inactive) | > 100 µM (inactive) | > 100 µM (inactive) | > 100 µM (inactive) | > 100 µM (inactive) | > 100 µM (inactive) | > 100 µM (inactive) | > 100 µM (inactive) | > 100 µM (inactive) | > 100 µM (inactive) | > 100 µM (inactive) | 5.55 µM (inactive) |
| COC(=O)NC1(NC(=O)OC)NC(=O)c2ccccc2N1 | > 100 µM (inactive) | > 100 µM (inactive) | > 100 µM (inactive) | > 100 µM (inactive) | > 100 µM (inactive) | > 100 µM (inactive) | > 100 µM (inactive) | > 100 µM (inactive) | > 100 µM (inactive) | > 100 µM (inactive) | > 100 µM (inactive) | > 100 µM (inactive) | > 100 µM (inactive) | > 100 µM (inactive) | > 100 µM (inactive) | > 100 µM (inactive) | > 100 µM (inactive) | > 100 µM (inactive) | > 100 µM (inactive) | – |
| Cc1c2ccnc(C(=O)NCCN(C)C)c2cc2c3cc(O)ccc3n(C)c12 | 0.15 µM (active) | – | 0.162 µM (active) | 0.125 µM (active) | 0.321 µM (active) | < 0.01 µM (active) | 0.957 µM (active) | < 0.0145 µM (active) | < 0.0184 µM (active) | 0.215 µM (active) | 0.277 µM (active) | 0.0931 µM (active) | 0.177 µM (active) | 0.149 µM (active) | 0.76 µM (active) | 0.295 µM (active) | 0.0188 µM (active) | 0.0542 µM (active) | 0.0596 µM (active) | 0.235 µM (active) |
